Measurements taken from patent US11440923B2, “Substituted macrocyclic indole derivatives” (Bayer Aktiengesellschaft, priority 2017, dated 2022).
Structures can show the parent of a compound that is named as a salt. Where two headings read alike, the source gives them in different places.

Experiments:
BCL-2 = BCL-2 (Homo sapiens (Human), UniProt P10415); experiment: Protein-protein interaction assay BCL-2/Bad BH3 peptide (BCL-2 assay, TR-FRET); assay type: binding; conditions: read-out: BCL-2 Assay IC50 (median)
BCL-2, sequence (P10415 1-211): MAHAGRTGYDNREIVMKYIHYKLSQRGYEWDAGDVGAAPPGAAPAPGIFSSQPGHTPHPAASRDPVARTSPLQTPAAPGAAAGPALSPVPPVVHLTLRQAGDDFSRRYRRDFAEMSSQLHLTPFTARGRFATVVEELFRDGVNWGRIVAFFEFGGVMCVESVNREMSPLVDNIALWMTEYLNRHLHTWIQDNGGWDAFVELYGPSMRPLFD
Procedure: Assay 3 Protein-Protein Interaction Assay: BCL-2/Bad BH3 Peptide (BCL-2 Assay)
The dose-dependent inhibition by the compounds described in this invention of the interaction between BCL-2 and the BH3 domain of Bad (both human) was determined using a steady state binding competition assay with time-resolved fluorescence energy transfer (TR-FRET) readout. For that purpose BCL-2 (amino acids 1-211, C-terminal fused to a hexahistidine (6×His) tag (SEQ ID 5) and a synthetic Bad BH3-derived peptide of sequence Biotin-PEG2-PEG2-[…]-Nle-[…]-amide (SEQ ID 4) served as protein receptor and tracer ligand respectively. The recombinant BCL-2 protein (expressed in E. coli) was purchased from BPS Bioscience (San Diego, Calif., USA). The Bad BH3-derived peptide can be obtained from e.g. Biosyntan (Berlin, Germany).
In the assay 11 different concentrations of each compound (0.1 nM, 0.33 nM, 1.1 nM, 3.8 nM, 13 nM, 44 nM, 0.15 μM, 0.51 μM, 1.7 μM, 5.9 μM and 20 μM) were typically measured as duplicates in the same microtiter plate. For that, 100-fold concentrated DMSO solutions were prepared by serial dilutions (1:3.4) of a 2 mM stock solution in a clear, 384-well microtiter plate (Greiner Bio-One, Frickenhausen, Germany). From there, 50 nl were transferred in a dark test plate (Greiner Bio-One, Frickenhausen, Germany). The assay was initiated by addition of 2 μL of a 2,5-fold concentrated His-BCL-2 solution (usually for a 1 nM end concentration in 5 μL reaction volume) in aqueous assay buffer [50 mM Tris/HCl pH 7, 100 mM sodium chloride (NaCl), 50 mM potassium fluoride (KF), 0.005% Tween-20, 2 mM DTT, 0.1% bovine gamma globulin (BGG)] to the compounds in the assay plate. This was followed by a 10-minute incubation step at 22° C. for pre-equilibration of the putative complex between His-BCL-2 and the compounds. After that, 3 μL of a 1.67-fold concentrated solution (in assay buffer) consisting of Bad BH3-derived peptide (1 nM end concentration) and TR-FRET detection reagents [1.67 nM anti-His-Eu cryptate and 1.67 nM streptavidin-XL665 (both from Cisbio Bioassays, Codolet, France)], were added.
The mixture was incubated in the dark for one hour at 22° C. and then overnight at 4° C. The formation of BCL-2/Bad complexes was determined by measuring the resonance energy transfer of the anti-His-Eu-cryptate antibody to the streptavidin-XL665 present in the reaction. For that purpose, the fluorescence emission at 620 nm and 665 nm after excitation at 330-350 nm was measured in a TR-FRET measuring instrument, for instance a Rubystar or a Pherastar (both from BMG Lab Technologies, Offenburg, Germany) or a Viewlux (Perkin-Elmer). The ratio of the emission at 665 nm and at 622 nm was used as indicator of the amount of BCL-2/Bad complexes present.
The resulting data (ratio) were normalized, taking 0% inhibition as the mean value of control measurements (usually 32 data points) where all reagents were included. In this case 50 nl DMSO were used instead of compounds. […] IC50 values were determined by regression analysis based on a 4 parameter equation (minimum, maximum, IC50, Hill; Y=Max+(Min−Max)/(1+(X/IC50)^Hill) using the Screener Software (Genedata).

AMO-1 cells = experiment: Antiproliferation assay AMO-1 (Assay 7); assay type: cell-based; conditions: read-out: Antiproli AMO-1 IC50 median, 72 h, CellTiter-Glo
Summary of the method: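 Anti-proliferative effect was measured by CellTiter-Glo ATP luminescence after 72 h compound exposure at 37° C, following overnight plating. IC50s were derived using a parallel time-zero plate and DMSO-treated controls as reference points.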

Row | Compound | IC50 (BCL-2) [µM] | IC50 (AMO-1 cells) [µM] | IC50 (AMO-1 cells; Homo sapiens, AMO1, 72 h) [µM]
1 | CCc1c2c(nn1C)C(CCN1CCC(F)(F)C1)OCCCCn1c(C(=O)O)c(CCCOc3cccc4cc(F)ccc34)c3ccc(Cl)c-2c31 (single isomer, unassigned; enantiomer 1) [Example 56, 4-chloro-15-[2-(3,3-difluoropyrrolidin-1-yl)ethyl]-3-ethyl-7-{3-[(6-fluoronaphthalen-1-yl)oxy]propyl}-2-methyl-2,10,11,12,13,15-hexahydropyrazolo[4′,3′:9,10][1,6]oxazacycloundecino[8,7,6-hi]indole-8-carboxylic Acid—N-ethylethanamine Salt (Enantiomer 1)] | > 20 | 0.0226 | –
2 | Cc1c2c(nn1C)C(C)OCCCCn1c(C(=O)O)c(CCCOc3cccc4ccccc34)c3cccc-2c31 (single isomer, unassigned; stereoisomer 1) [Example 2, 2,3,15-trimethyl-7-[3-(naphthalen-1-yloxy)propyl]-2,10,11,12,13,15-hexahydropyrazolo[4′,3′:9,10][1,6]oxazacycloundecino[8,7,6-hi]indole-8-carboxylic Acid Trifluoroacetic Acid Salt (Stereoisomer 1)] | > 20 | – | –
3 | CCc1c2c(nn1C)C(CCN1CCOCC1)OCCCCn1c(C(=O)O)c(CCCOc3cccc4ccccc34)c3ccc(F)c-2c31 (single isomer, unassigned; enantiomer 2) [Example 12, 3-ethyl-4-fluoro-2-methyl-15-[2-(morpholin-4-yl)ethyl]-7-{3-[(naphthalen-1-yl)oxy]propyl}-2,10,11,12,13,15-hexahydropyrazolo[4′,3′:9,10][1,6]oxazacycloundecino[8,7,6-hi]indole-8-carboxylic Acid—N-ethylethanamine Salt (Enantiomer 2)] | > 20 | 12.1 | –

The next lines start with results.

Row | IC50 (BCL-2) [µM] | Compound | IC50 (AMO-1 cells) [µM] | IC50 (AMO-1 cells; Homo sapiens, AMO1, 72 h) [µM]
4 | > 20 | Cc1c2c(nn1C)C(CCN1CCOCC1)OCCCCn1c(C(=O)O)c(CCCOc3cccc4ccccc34)c3ccc(F)c-2c31 (single isomer, unassigned; enantiomer 2) [Example 9, 4-fluoro-2,3-dimethyl-15-[2-(morpholin-4-yl)ethyl]-7-{3-[(naphthalen-1-yl)oxy]propyl}-2,10,11,12,13,15-hexahydropyrazolo[4′,3′:9,10][1,6]oxazacycloundecino[8,7,6-hi]indole-8-carboxylic Acid—N-ethylethanamine Salt (Enantiomer 2)] | – | –
5 | > 20 | Cc1c2c(nn1C)C(CCN1CCOCC1)OCCCCn1c(C(=O)O)c(CCCOc3cccc4ccccc34)c3ccc(F)c-2c31 (racemic) [Example 7, (rac)-4-fluoro-2,3-dimethyl-15-[2-(morpholin-4-yl)ethyl]-7-[3-(naphthalen-1-yloxy)propyl]-2,10,11,12,13,15-hexahydropyrazolo[4′,3′:9,10][1,6]oxazacycloundecino[8,7,6-hi]indole-8-carboxylic Acid] | – | –
6 | > 20 | Cc1c2c(nn1C)C(CCN1CCOCC1)OCCCCn1c(C(=O)O)c(CCCOc3cccc4ccccc34)c3ccc(Cl)c-2c31 (racemic) [Example 13, (rac)-4-chloro-2,3-dimethyl-15-[2-(morpholin-4-yl)ethyl]-7-{3-[(naphthalen-1-yl)oxy]propyl}-2,10,11,12,13,15-hexahydropyrazolo[4′,3′:9,10][1,6]oxazacycloundecino[8,7,6-hi]indole-8-carboxylic Acid] | – | 0.191
7 | > 20 | Cc1c2c(nn1C)C(C)OCCCCn1c(C(=O)O)c(CCCOc3cccc4ccccc34)c3cccc-2c31 (single isomer, unassigned; stereoisomer 2) [Example 3, 2,3,15-trimethyl-7-[3-(naphthalen-1-yloxy)propyl]-2,10,11,12,13,15-hexahydropyrazolo[4′,3′:9,10][1,6]oxazacycloundecino[8,7,6-hi]indole-8-carboxylic Acid Trifluoroacetic Acid Salt (Stereoisomer 2)] | – | –
